Experimental data from US20020160459A1, “PROCESS FOR PRODUCTION OF N-GLUCOSAMINE” (priority 1999, published 2002).
Read-outs that look alike come from different tables or passages of the source.

Experiments:
[1] = molecular target: T1, N-glucosamine-6-phosphate synthase (Escherichia coli, UniProt P17169); conditions: substrate of the enzyme from Escherichia coli; cited from earlier work
[2] = molecular target: T1, N-glucosamine-6-phosphate synthase; experiment: Product inhibition of N-glucosamine-6-phosphate synthase, spectrophotometric assay in crude cell extracts; type: biochemical; conditions: FIG. 5; assays run with various concentrations of added product
Procedure: N-glucosamine-6-phosphate synthase activity was measured in production strains containing integrated T7-glmS cassettes after growth in LB medium with and without IPTG (Table 2). N-glucosamine-6-phosphate synthase was assayed in crude cell extracts using either […] or spectrophotometric assays (Badet et al., 1987, Biochemistry 26:1940-1948) as described below. The extracts used for those assays were prepared by suspending washed cell pellets in 5 mL of 0.1 M KH2PO4/K2HPO4, pH 7.5 per gram of wet cell paste, passing the suspension through a French press at 16,000 psi, and centrifuging the disrupted cell suspension at 35,000-40,000 ×g for 15 to 20 minutes. The supernatant was used as the source of enzyme for the assay.
In the spectrophotometric assay, 1 mL reactions containing 50 mM KH2PO4/K2HPO4, 10 mM fructose-6-phosphate, 6 mM L-glutamine, 10 mM KCl, 0.6 mM acetylpyridine adenine dinucleotide (APAD), and 50-60 Units of L-glutamic dehydrogenase (Sigma Type II from bovine liver) were run at room temperature. The activity was followed by monitoring the absorbance at 365 nm after the addition of extract and corrected for the small absorbance increase observed in the absence of extract. The activity was calculated using a molar extinction coefficient for APAD of 9100. […]

[3] = molecular target: T1, N-glucosamine-6-phosphate synthase; conditions: White 1968, Biochem. J. 106:847-858; cited from earlier work

T1 sequence (P17169 2-609): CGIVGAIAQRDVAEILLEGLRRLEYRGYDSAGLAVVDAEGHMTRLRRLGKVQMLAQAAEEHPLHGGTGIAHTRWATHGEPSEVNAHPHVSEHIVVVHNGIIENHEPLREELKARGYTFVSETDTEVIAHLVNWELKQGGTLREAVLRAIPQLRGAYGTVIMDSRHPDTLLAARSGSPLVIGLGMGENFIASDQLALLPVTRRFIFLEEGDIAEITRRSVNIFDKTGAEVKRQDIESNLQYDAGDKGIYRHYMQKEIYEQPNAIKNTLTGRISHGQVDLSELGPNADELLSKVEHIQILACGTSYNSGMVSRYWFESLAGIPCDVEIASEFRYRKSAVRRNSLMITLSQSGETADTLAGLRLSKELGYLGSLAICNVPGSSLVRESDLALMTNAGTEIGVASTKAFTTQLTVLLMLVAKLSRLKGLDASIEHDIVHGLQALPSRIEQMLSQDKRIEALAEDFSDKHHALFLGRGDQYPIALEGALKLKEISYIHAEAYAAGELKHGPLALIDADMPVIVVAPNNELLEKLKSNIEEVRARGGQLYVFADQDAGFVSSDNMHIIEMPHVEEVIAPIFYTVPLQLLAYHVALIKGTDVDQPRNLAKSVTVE

SMILES	Km [1]	inhibition of N-glucosamine-6-phosphate synthase [2]	inhibition of N-glucosamine-6-phosphate synthase [3]
O=C(CO)[C@@H](O)[C@H](O)[C@H](O)COP(=O)(O)O [fructose-6-phosphate]	2000 µM	–	–
NC(=O)CC[C@H](N)C(=O)O [glutamine]	400 µM	–	–
N[C@@H]1[C@@H](O)[C@H](O)[C@@H](COP(=O)(O)O)O[C@@H]1O [N-glucosamine-6-phosphate]	–	significantly inhibited	inhibited
N[C@H]1C(O)O[C@H](CO)[C@@H](O)[C@@H]1O (some centres unmarked) [N-glucosamine]	–	slightly inhibited	–
